# Measurements published in US20200009168A1, “MICROBIOME REGULATORS AND RELATED USES THEREOF” (KALEIDO BIOSCIENCES, INC., priority 2015, published 2020).
# Assays:
# [1] = tested on: colonic regulatory T cells; details: in mice or in vitro; cited from earlier work
# [2] = tested on: Ruminococcus obeum ATCC 29714 "ROB.74"; test: Sugar-supported growth of commensal bacteria, ROB.74; assay type: cell-based; details: 0.5% w/v sugar, 37° C., 18-24 hours, anaerobic; OD600 divided by OD600 with 0.5% w/v dextrose
# Method: (§1) An in vitro assay was performed to assess the ability of various bacterial strains, including commensals of the gastrointestinal tract, to utilize different sugars as growth substrates. This assay was designed to assess the ability of selected natural monosaccharides, disaccharides and synthetic sugars to promote the growth of microbiota associated with a healthy state. Bacterial strains were handled at all steps in an anaerobic chamber (AS-580, Anaerobe Systems) featuring a palladium catalyst. The chamber was initially made anaerobic by purging with an anaerobic gas mixture of 5% hydrogen, 5% carbon dioxide and 90% nitrogen and subsequently maintained in an anaerobic state using this same anaerobic gas mixture. Anaerobicity of the chamber was confirmed daily using Oxoid anaerobic indicator strips that change color in the presence of oxygen. All culture media, assay plates, other reagents and plastic consumables were pre-reduced in the anaerobic chamber for 24-48 hours prior to contact with bacteria. Sugars were prepared at 5% w/v in water, filter-sterilized and added to Costar 3370 assay plates for a final concentration of 0.5% w/v in the assay, with each microbiome regulator assayed in two non-adjacent wells and dextrose and water supplied as positive and negative controls.
# (§2) Bacterial isolates were obtained from the American Type Culture Collection (ATCC) and Leibniz Institute DSMZ-German Institute of Microorganisms and Cell Cultures (DSMZ). Cultures of the Bacteroidetes Bacteroides caccae ATCC 43185 “BCA.26”, Bacteroides thetaiotaomicron ATCC 29741 “BTH.8”, Bacteroides cellulosilyticus DSM 14838 “BCE.71”, Parabacteroides distasonis ATCC 8503 “PDI.6” and Prevotella copri DSM 18205 “PCO.72”; the Clostridiales Clostridium scindens ATCC 35704 “CSC.32”, Dorea formicigenerans ATCC 27755 “DFO.36” and Ruminococcus obeum ATCC 29714 “ROB.74”; and the Bifidobacteria Bifidobacterium longum ATCC 15707 “BLO.16” and Bifidobacterium longum DSM 20088 “BLO.83”, were grown anaerobically in Chopped Meat Glucose broth (CMG, Anaerobe Systems), a pre-reduced enriched medium including lean ground beef, enzymatic digest of casein, yeast extract, potassium phosphate, dextrose, cysteine, hemin and Vitamin K1, for 18-48 hours at 37° C. Inocula were prepared by determining the optical density of each culture at […] (OD600) in a Costar 3370 polystyrene 96-well flat-bottom assay plate using a Biotek Synergy 2 plate reader with Gen5 2.0 All-In-One Microplate Reader Software according to manufacturer's protocol, and diluting the cells to OD600 0.01 final in defined and semi-defined media that were prepared without sugars. D. formicigenerans, P. distasonis and B. longum isolates were tested in 900 mg/L sodium chloride, 26 mg/L calcium chloride dihydrate, 20 mg/L magnesium chloride hexahydrate, 10 mg/L manganese chloride tetrahydrate, 40 mg/L ammonium sulfate, 4 mg/L iron sulfate heptahydrate, 1 mg/L cobalt chloride hexahydrate, 300 mg/L potassium phosphate dibasic, 1.5 g/L sodium phosphate dibasic, 5 g/L sodium bicarbonate, 0.125 mg/L biotin, 1 mg/L pyridoxine, […], 75 mg/L histidine, 75 mg/L glycine, 75 mg/L tryptophan, 150 mg/L arginine, 150 mg/L methionine, 150 mg/L threonine, 225 mg/L valine, 225 mg/L isoleucine, 300 mg/L leucine, 400 mg/L cysteine, and 450 mg/L proline (Theriot C M et al. Nat Commun. 2014; 5:3114), supplemented with 0-3.5% (v/v) CMG. B. thetaiotaomicron, B. caccae and B. cellulosyliticus were tested in 100 mM potassium phosphate buffer (pH 7.2), 15 mM sodium chloride, 8.5 mM ammonium sulfate, 4 mM L-cysteine, 1.9 μM hematin, 200 μM L-histidine, 100 μM magnesium chloride, 1.4 μM iron sulfate heptahydrate, 50 μM calcium chloride, 1 μg/mL vitamin K3 and 5 ng/mL vitamin B12 (Martens E C et al. Cell Host & Microbe 2008; 4, 447-457). […]
# [3] = tested on: Bifidobacterium longum DSM 20088 "BLO.83"; test: Sugar-supported growth of commensal bacteria, BLO.83; assay type: cell-based; details: 0.5% w/v sugar, 37° C., 18-24 hours, anaerobic; OD600 divided by OD600 with 0.5% w/v dextrose
# Method: as §1
# Bacterial isolates were obtained from the American Type Culture Collection (ATCC) and Leibniz Institute DSMZ-German Institute of Microorganisms and Cell Cultures (DSMZ). Cultures of the Bacteroidetes Bacteroides caccae ATCC 43185 “BCA.26”, Bacteroides thetaiotaomicron ATCC 29741 “BTH.8”, Bacteroides cellulosilyticus DSM 14838 “BCE.71”, Parabacteroides distasonis ATCC 8503 “PDI.6” and Prevotella copri DSM 18205 “PCO.72”; the Clostridiales Clostridium scindens ATCC 35704 “CSC.32”, Dorea formicigenerans ATCC 27755 “DFO.36” and Ruminococcus obeum ATCC 29714 “ROB.74”; and the Bifidobacteria Bifidobacterium longum ATCC 15707 “BLO.16” and Bifidobacterium longum DSM 20088 “BLO.83”, were grown anaerobically in Chopped Meat Glucose broth (CMG, Anaerobe Systems), a pre-reduced enriched medium including lean ground beef, enzymatic digest of casein, yeast extract, potassium phosphate, dextrose, cysteine, hemin and Vitamin K1, for 18-48 hours at 37° C. Inocula were prepared by determining the optical density of each culture at […] (OD600) in a Costar 3370 polystyrene 96-well flat-bottom assay plate using a Biotek Synergy 2 plate reader with Gen5 2.0 All-In-One Microplate Reader Software according to manufacturer's protocol, and diluting the cells to OD600 0.01 final in defined and semi-defined media that were prepared without sugars. […]
# [4] = tested on: Parabacteroides distasonis ATCC 8503 "PDI.6"; test: Sugar-supported growth of commensal bacteria, PDI.6; assay type: cell-based; details: 0.5% w/v sugar, 37° C., 18-24 hours, anaerobic; OD600 divided by OD600 with 0.5% w/v dextrose
# Method: as §1, §2
# [5] = tested on: Bacteroides thetaiotaomicron ATCC 29741 "BTH.8"; test: Sugar-supported growth of commensal bacteria, BTH.8; assay type: cell-based; details: 0.5% w/v sugar, 37° C., 18-24 hours, anaerobic; OD600 divided by OD600 with 0.5% w/v dextrose
# Method: as §1, §2
# [6] = tested on: Bifidobacterium longum ATCC 15707 "BLO.16"; test: Sugar-supported growth of commensal bacteria, BLO.16; assay type: cell-based; details: 0.5% w/v sugar, 37° C., 18-24 hours, anaerobic; OD600 divided by OD600 with 0.5% w/v dextrose
# Method: as §1, §2
# [7] = studies by McCance et al (J Biol Chem (1930) 24:795-804); cited from earlier work
# [8] = tested on: Clostridium scindens ATCC 35704 "CSC.32"; test: Sugar-supported growth of commensal bacteria, CSC.32; assay type: cell-based; details: 0.5% w/v sugar, 37° C., 18-24 hours, anaerobic; OD600 divided by OD600 with 0.5% w/v dextrose
# Method: as §1, §2
# [9] = tested on: Prevotella copri DSM 18205 "PCO.72"; test: Sugar-supported growth of commensal bacteria, PCO.72; assay type: cell-based; details: 0.5% w/v sugar, 37° C., 18-24 hours, anaerobic; OD600 divided by OD600 with 0.5% w/v dextrose
# Method: as §1, §2
# [10] = tested on: Bacteroides caccae ATCC 43185 "BCA.26"; test: Sugar-supported growth of commensal bacteria, BCA.26; assay type: cell-based; details: 0.5% w/v sugar, 37° C., 18-24 hours, anaerobic; OD600 divided by OD600 with 0.5% w/v dextrose
# Method: as §1, §2
# panel of 10 commensals = test: Sugar-supported growth, whole panel of 10 commensals; assay type: cell-based; details: 0.5% w/v sugar, summary in words
# Method: as §1, §2
# [11] = tested on: Bacteroides cellulosilyticus DSM 14838 "BCE.71"; test: Sugar-supported growth of commensal bacteria, BCE.71; assay type: cell-based; details: 0.5% w/v sugar, 37° C., 18-24 hours, anaerobic; OD600 divided by OD600 with 0.5% w/v dextrose
# Method: as §1, §2
# [12] = tested on: Dorea formicigenerans ATCC 27755 "DFO.36"; test: Sugar-supported growth of commensal bacteria, DFO.36; assay type: cell-based; details: 0.5% w/v sugar, 37° C., 18-24 hours, anaerobic; OD600 divided by OD600 with 0.5% w/v dextrose
# Method: as §1, §2
SMILES,"expression of Foxp3, a T cell regulatory factor [1]","expression of IL-10, an anti-inflammatory cytokine [1]","Average Normalized Growth (NGV), ROB.74 [2]","Average Normalized Growth (NGV), BLO.83 [3]","Average Normalized Growth (NGV), PDI.6 [4]","Average Normalized Growth (NGV), BTH.8 [5]","Average Normalized Growth (NGV), BLO.16 [6]",absorption by the gastrointestinal tract [7],"Average Normalized Growth (NGV), CSC.32 [8]","Average Normalized Growth (NGV), PCO.72 [9]","Average Normalized Growth (NGV), BCA.26 [10]",taxa or strains of the commensal panel whose growth was supported (panel of 10 commensals),"Average Normalized Growth (NGV), BCE.71 [11]","Average Normalized Growth (NGV), DFO.36 [12]"
"CCC(=O)O [propionate, propionic acid]",increased,increased,,,,,,,,,,,,
O=C[C@H](O)[C@@H](O)[C@@H](O)[C@H](O)CO [D-galactose],,,+ (0.2-0.6),+++ (>1),+++ (>1),+++ (>1),− (<0.2),readily absorbed,++ (0.6-1),+++ (>1),++ (0.6-1),"supported some commensals from the taxa Bacteroidetes, Firmicutes, including Lachnospiraceae, and Bifidobacteria",+++ (>1),+ (0.2-0.6)
